Values quoted from earlier work, collected in patent US7393522B2, “Physiologically balanced, ionized, acidic solution and methodology for use in wound healing” (NovaBay Pharmaceuticals, Inc., priority 2000, dated 2008).

Details: pH 5.0 to pH 8.0

- pH of maximum decomposition rate: 6.89
SMILES: OCl [HOCl, hypochlorous acid]
